PMC10167348, “Structural mechanisms of TRPM7 activation and inhibition” (Nature Communications, 2023)
Positions count from the first letter of the chain named. Names and notes keep the numbering of the source.

Assays:
TRPM7 WT = molecular target: T1, TRPM7 WT (Mus musculus, UniProt Q923J1); experiment: Aequorin-based Ca2+ influx assay, inhibition of TRPM7-mediated Ca2+ influx; type: cell-based; conditions: antagonist, mean ± SEM
T1 construct: expressed in transfected cells; host or cells: HEK 293T
T1 sequence (Q923J1 whole entry): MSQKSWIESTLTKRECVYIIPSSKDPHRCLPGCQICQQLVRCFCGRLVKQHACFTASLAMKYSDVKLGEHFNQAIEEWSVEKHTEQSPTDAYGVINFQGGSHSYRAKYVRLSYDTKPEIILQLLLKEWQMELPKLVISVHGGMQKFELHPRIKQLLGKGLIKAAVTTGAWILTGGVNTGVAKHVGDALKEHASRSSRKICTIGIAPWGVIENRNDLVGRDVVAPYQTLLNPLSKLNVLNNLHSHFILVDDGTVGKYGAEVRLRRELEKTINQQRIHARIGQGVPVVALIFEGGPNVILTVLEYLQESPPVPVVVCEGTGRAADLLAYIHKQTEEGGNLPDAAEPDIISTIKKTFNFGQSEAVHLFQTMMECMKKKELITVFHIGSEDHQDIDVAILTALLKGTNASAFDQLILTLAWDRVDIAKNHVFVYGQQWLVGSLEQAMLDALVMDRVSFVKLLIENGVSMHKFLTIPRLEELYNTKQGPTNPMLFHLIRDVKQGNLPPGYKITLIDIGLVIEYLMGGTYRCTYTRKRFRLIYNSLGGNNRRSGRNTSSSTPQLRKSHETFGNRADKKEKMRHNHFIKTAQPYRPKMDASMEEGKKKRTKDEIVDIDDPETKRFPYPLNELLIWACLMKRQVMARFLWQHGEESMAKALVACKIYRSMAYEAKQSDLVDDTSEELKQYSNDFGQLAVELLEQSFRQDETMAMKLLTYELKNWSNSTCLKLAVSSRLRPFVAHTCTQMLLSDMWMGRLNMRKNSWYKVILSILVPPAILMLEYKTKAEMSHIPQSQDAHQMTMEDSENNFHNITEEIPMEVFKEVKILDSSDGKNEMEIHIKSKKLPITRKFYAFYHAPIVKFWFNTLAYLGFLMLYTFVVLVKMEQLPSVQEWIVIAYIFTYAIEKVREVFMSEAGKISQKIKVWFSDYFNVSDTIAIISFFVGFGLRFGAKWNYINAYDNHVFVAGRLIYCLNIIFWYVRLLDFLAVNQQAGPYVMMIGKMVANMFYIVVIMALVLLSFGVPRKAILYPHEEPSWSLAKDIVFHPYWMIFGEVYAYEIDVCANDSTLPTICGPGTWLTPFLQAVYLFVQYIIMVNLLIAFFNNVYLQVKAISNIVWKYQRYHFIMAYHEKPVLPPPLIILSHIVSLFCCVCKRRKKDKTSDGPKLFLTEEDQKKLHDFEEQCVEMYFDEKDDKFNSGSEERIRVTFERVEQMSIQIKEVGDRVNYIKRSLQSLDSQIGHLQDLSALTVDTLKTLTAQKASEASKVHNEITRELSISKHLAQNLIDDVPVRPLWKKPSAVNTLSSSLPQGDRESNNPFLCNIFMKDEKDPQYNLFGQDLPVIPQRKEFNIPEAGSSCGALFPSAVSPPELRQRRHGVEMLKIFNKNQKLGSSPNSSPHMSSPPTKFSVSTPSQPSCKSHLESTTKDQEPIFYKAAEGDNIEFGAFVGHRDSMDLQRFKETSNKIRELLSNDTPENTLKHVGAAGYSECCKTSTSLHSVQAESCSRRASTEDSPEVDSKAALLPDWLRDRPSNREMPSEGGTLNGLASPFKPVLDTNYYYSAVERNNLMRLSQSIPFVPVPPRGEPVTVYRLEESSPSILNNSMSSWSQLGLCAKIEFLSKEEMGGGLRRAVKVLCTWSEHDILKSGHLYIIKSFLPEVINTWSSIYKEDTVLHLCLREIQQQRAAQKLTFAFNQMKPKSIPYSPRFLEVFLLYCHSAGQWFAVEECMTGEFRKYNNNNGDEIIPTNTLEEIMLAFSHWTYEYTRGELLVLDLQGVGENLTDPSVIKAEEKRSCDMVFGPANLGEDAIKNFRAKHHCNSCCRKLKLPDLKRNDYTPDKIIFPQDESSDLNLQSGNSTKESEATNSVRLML
Procedure: (§1) Measurements of [Ca^2+]i were performed as reported previously with several modifications[2],[52],[54]. HEK 293T cells (mycoplasma test negative, ATCC #CRL3216) were maintained at 37 °C and 5% CO2 in DMEM supplemented with 10% fetal calf serum, 100 µg/ml streptomycin and 100 U/ml penicillin (all from Thermo Fisher Scientific). Cells cultured in six-well plates (~60% confluence) were transfected with 2 µg/dish Trpm7 plasmid DNA and 0.1 µg/dish pG5A plasmid DNA encoding eGFP fused to Aequorea victoria aequorin, using Lipofectamine 2000 (Thermo Fisher Scientific). Twenty-four hours after transfection, the cells were washed with Mg^2+-free HEPES-buffered saline (Mg^2+-free HBS) containing 140 mM NaCl, 6 mM KCl, 0.5 mM CaCl2, 10 mM HEPES (pH 7.4) and 5 mM glucose, and mechanically resuspended in the Mg^2+-free HBS. For reconstitution of aequorin, cell suspensions were incubated with 5 µM coelenterazine (Biaffin GmbH) in the Mg^2+-free HBS for 30 min at room temperature. Cells were washed twice by centrifugation at 600 rpm for 5 min (Heraeus Pico 17 microcentrifuge, Thermo Fisher Scientific), resuspended in the Mg^2+-free HBS and aliquoted into 96-well plates (1 × 10^5 cells per well). Luminescence was detected at room temperature using a FLUOstar OPTIMA microplate reader (BMG LABTECH GmbH). To monitor the NS8593- and VER155008-induced inhibition of TRPM7-mediated Ca^2+ influx, the extracellular concentration of Ca^2+ was increased to 5 mM by injecting the CaCl2-containing Mg^2+-free HBS in the absence or presence of the inhibitors. […] To study activation by naltriben, TRPM7-transfected cells were exposed to Mg^2+-free HBS containing different concentrations of the agonist. The experiments were terminated by lysing cells with 0.1% (v/v) Triton X-100 in the Mg^2+-free HBS to record the total bioluminescence. The bioluminescence rates (counts/s) were analyzed at 1-s intervals and calibrated as [Ca^2+]i values using the following equation:1 p[Ca^2+]i=0.332588(−log(k))+5.5593 where k represents the rate of aequorin consumption, i.e., counts/s divided by the total number of counts.
(§2) To determine the IC50 values for NS8593 and VER155008 (EC50 for naltriben), the data were fitted with the following logistic equation:2 Ec=Emin+Emax+Emin/1+c^h/IC50^h where E(c) is the functional effect at the concentration c of the compound, Emin is the minimal effect, Emax is the maximal effect, IC50 (EC50) is the concentration of the compound that produces the half-maximal effect, and h is the Hill coefficient. Fitting of dose-response curves was performed using GraphPad Prism 8.4.0. Data are presented as the mean ± SEM.

TRPM7-A981L = molecular target: T2, TRPM7-A981L (Mus musculus, UniProt Q923J1, A981L); experiment: as above; type: cell-based; conditions: antagonist, mean ± SEM
T2 construct: expressed in transfected cells; host or cells: HEK 293T
T2 sequence (Q923J1 whole entry A981L): as the sequence (Q923J1 whole entry) above, with A981L counted along it
Procedure: as §1, §2

TRPM7-A981V = molecular target: T3, TRPM7-A981V (Mus musculus, UniProt Q923J1, A981V); experiment: as above; type: cell-based; conditions: antagonist, mean ± SEM
T3 construct: expressed in transfected cells; host or cells: HEK 293T
T3 sequence (Q923J1 whole entry A981V): as the sequence (Q923J1 whole entry) above, with A981V counted along it
Procedure: as §1, §2

TRPM7-M991A = molecular target: T4, TRPM7-M991A (Mus musculus, UniProt Q923J1, M991A); experiment: as above; type: cell-based; conditions: for sensitivity of the mutant to the inhibitor: TRPM7-M991A
T4 construct: expressed in transfected cells; host or cells: HEK 293T
T4 sequence (Q923J1 whole entry M991A): as the sequence (Q923J1 whole entry) above, with M991A counted along it
Procedure: as §1, §2

TRPM7-N1098Q = molecular target: T5, TRPM7-N1098Q (Mus musculus, UniProt Q923J1, N1098Q); experiment: as above; type: cell-based; conditions: N1098Q, antagonist, mean ± SEM
T5 construct: expressed in transfected cells; host or cells: HEK 293T
T5 sequence (Q923J1 whole entry N1098Q): as the sequence (Q923J1 whole entry) above, with N1098Q counted along it
Procedure: as §1, §2

TRPM7-W1111A = molecular target: T6, TRPM7-W1111A (Mus musculus, UniProt Q923J1, W1111A); experiment: as above; type: cell-based; conditions: antagonist, mean ± SEM
T6 construct: expressed in transfected cells; host or cells: HEK 293T
T6 sequence (Q923J1 whole entry W1111A): as the sequence (Q923J1 whole entry) above, with W1111A counted along it
Procedure: as §1, §2

wild-type TRPM7 = molecular target: T7, wild-type TRPM7 (Mus musculus, UniProt Q923J1); experiment: Whole-cell patch-clamp recordings in HEK 293T cells; type: cell-based; conditions: 10 µM inhibitor, 450-s exposure, amplitude at +80 mV
T7 construct: expressed in transfected cells; host or cells: HEK 293T
T7 sequence (Q923J1 whole entry): as the sequence (Q923J1 whole entry) above
Procedure: Patch-clamp experiments were performed as reported previously, with a few modifications[69],[70]. HEK 293T cells grown in 35-mm dishes to ~60% confluence were transiently transfected with Trpm7 cDNAs in the pIRES2-EGFP vector (2 µg/dish). Patch-clamp experiments were conducted 18–22 h after transfection with cells displaying EGFP fluorescence. Whole-cell currents were recorded using an EPC10 patch-clamp amplifier and PatchMaster software (Version V2x69, Harvard Bioscience). Voltages were corrected for a liquid junction potential of 10 mV. Currents were elicited by voltage ramps from –100 mV to +100 mV over 50 ms acquired at 0.5 Hz. The inward and outward current amplitudes were measured at –80 mV and +80 mV and were normalized to the cell size as pA/pF. The capacitance was measured using the automated capacitance cancellation function of EPC10. The standard extracellular solution contained 140 mM NaCl, 2.8 mM KCl, 1 mM CaCl2, 2 mM MgCl2, 10 mM HEPES-NaOH, and 11 mM glucose (all from Sigma-Aldrich). Solutions were adjusted to pH 7.2 using an FE20 pH meter (Mettler Toledo) and to 290 mOsm using a Vapro 5520 osmometer (Wescor Inc). […] For the experiment with naltriben, the intracellular solution contained 120 mM Cs-glutamate, 8 mM NaCl, 10 mM Cs-EGTA, 1.5 mM MgCl2, and 10 mM HEPES-CsOH. The intracellular solution was also adjusted to pH 7.2 and 290 mOsm. Data are presented as the mean ± SEM Unless indicated otherwise, data were compared by unpaired t-test (GraphPad Prism 8.4.0). For multiple comparisons, ordinary one-way ANOVA (GraphPad Prism 8.4.0) was used. Significance was accepted at P ≤ 0.05.

[1] = molecular target: the molecule itself; experiment: cryo-EM structure; single-particle cryo-EM of purified TRPM7 in GDN or in MSP2N2 lipid nanodiscs (POPC:POPE:POPG), 150 mM NaCl, 20 mM Tris pH 8.0; apo or with naltriben, VER155008 or NS8593; final refinement with C4 symmetry

Molecule: N#Cc1ccc(COC[C@H]2O[C@@H](n3c(NCc4ccc(Cl)c(Cl)c4)nc4c(N)ncnc43)[C@H](O)[C@@H]2O)cc1 [VER155008]
- Hill coefficient (TRPM7 WT): –2.07 ± 0.41
- IC50 (TRPM7 WT): 0.23 ± 0.03 µM
- IC50 (TRPM7-A981L): ~25 µM
- IC50 (TRPM7-A981V): not feasible to calculate the IC50 value
- IC50 (TRPM7-M991A; M991A, antagonist, no added second inhibitor, mean ± SEM): not feasible to calculate the IC50 value
- sensitivity of the mutant to the inhibitor (TRPM7-M991A; 0.1-10 μM VER155008 (response to reviewers)): no sensitivity
- sensitivity of the mutant to the inhibitor (TRPM7-M991A; 1–10 µM VER): not sensitive
- Hill coefficient (TRPM7-N1098Q): –1.32 ± 0.20
- IC50 (TRPM7-N1098Q): 1.71 ± 0.25 µM
- IC50 (TRPM7-W1111A): ~10 µM
- amplitude of TRPM7-mediated currents in the presence of inhibitor (wild-type TRPM7): greatly reduced

B1: C-terminally truncated mouse TRPM7 (residues 1–1280), wild type (natural protein, UniProt Q923J1 1-1280, looked up)
chain: MSQKSWIESTLTKRECVYIIPSSKDPHRCLPGCQICQQLVRCFCGRLVKQHACFTASLAMKYSDVKLGEHFNQAIEEWSVEKHTEQSPTDAYGVINFQGGSHSYRAKYVRLSYDTKPEIILQLLLKEWQMELPKLVISVHGGMQKFELHPRIKQLLGKGLIKAAVTTGAWILTGGVNTGVAKHVGDALKEHASRSSRKICTIGIAPWGVIENRNDLVGRDVVAPYQTLLNPLSKLNVLNNLHSHFILVDDGTVGKYGAEVRLRRELEKTINQQRIHARIGQGVPVVALIFEGGPNVILTVLEYLQESPPVPVVVCEGTGRAADLLAYIHKQTEEGGNLPDAAEPDIISTIKKTFNFGQSEAVHLFQTMMECMKKKELITVFHIGSEDHQDIDVAILTALLKGTNASAFDQLILTLAWDRVDIAKNHVFVYGQQWLVGSLEQAMLDALVMDRVSFVKLLIENGVSMHKFLTIPRLEELYNTKQGPTNPMLFHLIRDVKQGNLPPGYKITLIDIGLVIEYLMGGTYRCTYTRKRFRLIYNSLGGNNRRSGRNTSSSTPQLRKSHETFGNRADKKEKMRHNHFIKTAQPYRPKMDASMEEGKKKRTKDEIVDIDDPETKRFPYPLNELLIWACLMKRQVMARFLWQHGEESMAKALVACKIYRSMAYEAKQSDLVDDTSEELKQYSNDFGQLAVELLEQSFRQDETMAMKLLTYELKNWSNSTCLKLAVSSRLRPFVAHTCTQMLLSDMWMGRLNMRKNSWYKVILSILVPPAILMLEYKTKAEMSHIPQSQDAHQMTMEDSENNFHNITEEIPMEVFKEVKILDSSDGKNEMEIHIKSKKLPITRKFYAFYHAPIVKFWFNTLAYLGFLMLYTFVVLVKMEQLPSVQEWIVIAYIFTYAIEKVREVFMSEAGKISQKIKVWFSDYFNVSDTIAIISFFVGFGLRFGAKWNYINAYDNHVFVAGRLIYCLNIIFWYVRLLDFLAVNQQAGPYVMMIGKMVANMFYIVVIMALVLLSFGVPRKAILYPHEEPSWSLAKDIVFHPYWMIFGEVYAYEIDVCANDSTLPTICGPGTWLTPFLQAVYLFVQYIIMVNLLIAFFNNVYLQVKAISNIVWKYQRYHFIMAYHEKPVLPPPLIILSHIVSLFCCVCKRRKKDKTSDGPKLFLTEEDQKKLHDFEEQCVEMYFDEKDDKFNSGSEERIRVTFERVEQMSIQIKEVGDRVNYIKRSLQSLDSQIGHLQDLSALTVDTLKTLTAQKASEASKVHNEITRELSISKHLAQNLID
notes: mouse TRPM7 (Trpm7 cDNA NM_021450), truncated C-terminally, protein residues 1–1280; lacks the kinase domain; A thrombin cleavage site (LVPRG) stands between GFP and TRPM7; the purification as described has no thrombin step; also called TRPM7_(Closed); TRPM7_(NTB-open); source: HEK 293S GnTI- cells, baculovirus-transduced (pEG-BacMam), purified (strep resin, SEC); in GDN or reconstituted in …
- stoichiometry N [1]: 4

B2: C-terminally truncated mouse TRPM7 (residues 1–1280) with the gain-of-function mutation N1098Q (natural protein, UniProt Q923J1 1-1280, looked up)
chain: B1 chain with N1098Q
notes: mouse TRPM7 (Trpm7 cDNA NM_021450), truncated C-terminally, protein residues 1–1280, with N1098Q; Same construct as m1 with the point mutation; a thrombin cleavage site (LVPRG) stands between GFP and TRPM7, no thrombin step is described; also called TRPM7-N1098Q; TRPM7-N1098Q_(open); source: HEK 293S GnTI- cells, baculovirus-transduced (pEG-BacMam), purified (strep resin, SEC); in GDN
- binding result [1]: binds
